Reference: patent US20190351012A1, “TARGETING OF INTERFERON-STIMULATED GENE EXPRESSION TO TREAT INTERFERONOPATHIES” (New York University, priority 2018, published 2019)

Tests used:
[1] = tested on: H3K4me3 at ISG54, ISG56 and 6-16 promoters; experiment: ChIP for H3K4me3 at ISG promoters in 2fTGH cells; type: cell-based, human; conditions: co-treatment with IFN-α
Method: FIG. 3. […] (A) 2fTGH cells were either left untreated or treated with IFN-α in the absence or presence of TSA for the indicated time (min). ChIP assays were performed with antibodies against Pol II and recovered ISG56 promoter sequences were quantified by real-time PCR relative to input and represented as fold induction relative to untreated cells. (B) As in A, except that antibodies against phosphorylated Pol II at serine-5 in the CTD were used for immunoprecipitation, following 60 min IFN-α treatments. Recovered ISG54, ISG56 and ISG15 promoter sequences were quantified by real-time PCR relative to input and represented as fold induction relative to untreated cells. (C) As in A, except that cells were treated with IFN-α for 60 min and proximal, middle and distal fragments along the ISG54 gene (left panel) and ISG56 gene (right panel) were assayed. (D) As in A, except that antibodies against trimethylated lysine-4 on histone H3 were used. Promoter regions of ISG54, ISG56 and 6-16 genes were quantified by real-time PCR and reported as fold over the signal detected with a non-specific antibody.
Chromatin immunoprecipitation was performed as follows. […] Immunoprecipitated DNA sequences were recovered by alcohol precipitation and quantified by real-time PCR compared with input genomic DNA. […]

[2] = tested on: CDK9 at ISG56 and ISG15 promoters; experiment: ChIP for CDK9 (P-TEFb) at ISG promoters in 2fTGH cells; type: cell-based, human; conditions: IFN-α 60 min in presence of TSA
Method: FIG. 4. HDAC activity is required for P-TEFb recruitment. (A) HeLa cells were either left untreated or treated with IFN-α for 1 h in presence or absence of 100 or 200 nM of the CDK9 inhibitor flavopiridol (Flay). Using primers spanning intron-exon junctions, nuclear pre-mRNA abundance for ISG54 and RPS11 were quantified using real-time RT-PCR and normalized to GAPDH mRNA. (B) 2fTGH cells were either left untreated or treated with IFN-α in the absence or presence of TSA for 60 min. ChIP assays were performed with antibodies against CDK9 and recovered ISG56 and ISG15 promoter sequences were quantified by real-time PCR relative to input and represented as percent of the input signal. (C) BT474 cells were either left untreated or treated with IFN-α in the absence or presence of TSA after exposure to Geldanamycin (Gelda) for 24 h, as indicated. mRNA for ISG56, OAS2 and c-Myc were quantified by real-time RT-PCR and normalized to GAPDH. […] ISG56 mRNA was quantified using real-time RT-PCR and normalized to GAPDH mRNA abundance (left panel). […] ISG56, Spt5 mRNA, and ISG54 pre-mRNA were quantified using real-time RT-PCR and normalized to GAPDH mRNA abundance.
To directly probe the involvement of P-TEFb in ISG expression, we assessed its recruitment to chromatin in response to IFN treatment. […]

CC(/C=C/C(=O)NO)=C\[C@@H](C)C(=O)c1ccc(N(C)C)cc1 [TSA, Trichostatin A]
level of H3K4me3 on ISG promoters [1]: neither IFN stimulation nor TSA co-treatment significantly affected | chromatin-bound CDK9 at ISG56 and ISG15 promoters [2]: not observed
